Measurements taken from ChEMBL document CHEMBL3885861, “Open TG-GATES”.

Species: Rattus norvegicus
Assay: Open TG-GATES - Regimen: Single
Format: toxicity, organism-based, Sprague-Dawley
Design: regimen Single, gender Male, age 6 weeks
Conditions: in vivo, po, 300 mg/kg, route gavage, dose level Low; for APTT / Bas / Eos / Fbg / Hb / Ht / Lym / MCH / MCHC / MCV / Mono / Neu / PT / Plat / RBC / Ret / WBC: tissue Blood; for KIDNEY_L / KIDNEY_R / KIDNEY_TOTAL: tissue Kidney; for LIVER: tissue Liver; for A/G / ALP / ALT / AST / BUN / CRE / Ca / Cl / DBIL / GLC / IP / K / LDH / Na / PL / RALB / TBIL / TC / TG / TP / gamma-GTP: tissue Plasma

Clc1c(Cl)c(Cl)c(Cl)c(Cl)c1Cl [PERCHLOROBENZENE]
TERMINAL_BW (3 h): 219 g
APTT (3 h): 18.9 s
Bas (3 h): 0%
Eos (3 h): 1%
Fbg (3 h): 225 mg/dL
Hb (3 h): 13.3 g/dL
Ht (3 h): 37.8%
Lym (3 h): 72.2%
MCH (3 h): 21.8 pg
MCHC (3 h): 35.2%
MCV (3 h): 61.7 fL
Mono (3 h): 2.8%
Neu (3 h): 23.2%
PT (3 h): 11.9 s
Plat (3 h): 121.8 x10_4/uL
RBC (3 h): 613.6 x10_4/ul
Ret (3 h): 7.1%
WBC (3 h): 86.9 x10_2/uL
KIDNEY_L (3 h): 1 g
KIDNEY_R (3 h): 1 g
KIDNEY_TOTAL (3 h): 2 g
LIVER (3 h): 9.9 g
A/G (3 h): 1.7
ALP (3 h): 1023.6 IU/L
ALT (3 h): 42.4 IU/L
AST (3 h): 87.2 IU/L
BUN (3 h): 10.2 mg/dL
CRE (3 h): 0.4 mg/dL
Ca (3 h): 10.7 mg/dL
Cl (3 h): 103 meq/L
DBIL (3 h): 0.062 mg/dL
GLC (3 h): 195.8 mg/dL
IP (3 h): 9.2 mg/dL
K (3 h): 3.9 meq/L
LDH (3 h): 211 IU/L
Na (3 h): 140.2 meq/L
PL (3 h): 145.8 mg/dL
RALB (3 h): 3.4 g/dL
TBIL (3 h): 0.1 mg/dL
TC (3 h): 72.6 mg/dL
TG (3 h): 109 mg/dL
TP (3 h): 5.4 g/dL
gamma-GTP (3 h): 1 IU/L
TERMINAL_BW (6 h): 218.5 g
APTT (6 h): 17.9 s
Bas (6 h): 0.2%
Eos (6 h): 1%
Fbg (6 h): 233.6 mg/dL
Hb (6 h): 13.6 g/dL
Ht (6 h): 38.5%
Lym (6 h): 77.2%
MCH (6 h): 21.9 pg
MCHC (6 h): 35.3%
MCV (6 h): 62 fL
Mono (6 h): 3.6%
Neu (6 h): 17.2%
PT (6 h): 11.9 s
Plat (6 h): 123.5 x10_4/uL
RBC (6 h): 623.6 x10_4/ul
Ret (6 h): 7%
WBC (6 h): 100 x10_2/uL
KIDNEY_L (6 h): 1 g
KIDNEY_R (6 h): 1 g
KIDNEY_TOTAL (6 h): 1.9 g
LIVER (6 h): 8.9 g
A/G (6 h): 1.6
ALP (6 h): 1089 IU/L
ALT (6 h): 31.4 IU/L
AST (6 h): 73.2 IU/L
BUN (6 h): 8.4 mg/dL
CRE (6 h): 0.4 mg/dL
Ca (6 h): 10.5 mg/dL
Cl (6 h): 102.8 meq/L
DBIL (6 h): 0.072 mg/dL
GLC (6 h): 190.6 mg/dL
IP (6 h): 9.4 mg/dL
K (6 h): 4.1 meq/L
LDH (6 h): 224.4 IU/L
Na (6 h): 140.8 meq/L
PL (6 h): 130.6 mg/dL
RALB (6 h): 3.4 g/dL
TBIL (6 h): 0.1 mg/dL
TC (6 h): 70.2 mg/dL
TG (6 h): 56 mg/dL
TP (6 h): 5.5 g/dL
gamma-GTP (6 h): 1 IU/L
TERMINAL_BW (9 h): 213.9 g
APTT (9 h): 18.1 s
Bas (9 h): 0%
Eos (9 h): 0.8%
Fbg (9 h): 228 mg/dL
Hb (9 h): 13.9 g/dL
Ht (9 h): 39.4%
Lym (9 h): 78.6%
MCH (9 h): 21.6 pg
MCHC (9 h): 35.2%
MCV (9 h): 61.5 fL
Mono (9 h): 3%
Neu (9 h): 16%
PT (9 h): 12.5 s
Plat (9 h): 125.7 x10_4/uL
RBC (9 h): 641.2 x10_4/ul
Ret (9 h): 6.4%
WBC (9 h): 85.4 x10_2/uL
KIDNEY_L (9 h): 1 g
KIDNEY_R (9 h): 0.9 g
KIDNEY_TOTAL (9 h): 1.9 g
LIVER (9 h): 8.7 g
A/G (9 h): 1.6
ALP (9 h): 857 IU/L
ALT (9 h): 30.6 IU/L
AST (9 h): 75.4 IU/L
BUN (9 h): 9.8 mg/dL
CRE (9 h): 0.4 mg/dL
Ca (9 h): 10.5 mg/dL
Cl (9 h): 104.2 meq/L
DBIL (9 h): 0.066 mg/dL
GLC (9 h): 202.8 mg/dL
IP (9 h): 10.2 mg/dL
K (9 h): 3.8 meq/L
LDH (9 h): 222 IU/L
Na (9 h): 142.6 meq/L
PL (9 h): 119.8 mg/dL
RALB (9 h): 3.4 g/dL
TBIL (9 h): 0.1 mg/dL
TC (9 h): 63.6 mg/dL
TG (9 h): 44.8 mg/dL
TP (9 h): 5.5 g/dL
gamma-GTP (9 h): 1.2 IU/L
TERMINAL_BW (24 h): 230 g
APTT (24 h): 17.8 s
Bas (24 h): 0.8%
Eos (24 h): 1%
Fbg (24 h): 225 mg/dL
Hb (24 h): 13.6 g/dL
Ht (24 h): 38.8%
Lym (24 h): 78%
MCH (24 h): 21.9 pg
MCHC (24 h): 35.1%
MCV (24 h): 62.4 fL
Mono (24 h): 3%
Neu (24 h): 17.2%
PT (24 h): 11.8 s
Plat (24 h): 114.2 x10_4/uL
RBC (24 h): 621 x10_4/ul
Ret (24 h): 6.4%
WBC (24 h): 81.3 x10_2/uL
KIDNEY_L (24 h): 1 g
KIDNEY_R (24 h): 1 g
KIDNEY_TOTAL (24 h): 2.1 g
LIVER (24 h): 11 g
A/G (24 h): 1.6
ALP (24 h): 883.2 IU/L
ALT (24 h): 32 IU/L
AST (24 h): 61.8 IU/L
BUN (24 h): 13.2 mg/dL
CRE (24 h): 0.4 mg/dL
Ca (24 h): 10.9 mg/dL
Cl (24 h): 103.2 meq/L
DBIL (24 h): 0.058 mg/dL
GLC (24 h): 202.4 mg/dL
IP (24 h): 7.1 mg/dL
K (24 h): 3.9 meq/L
LDH (24 h): 196 IU/L
Na (24 h): 141.6 meq/L
PL (24 h): 143.8 mg/dL
RALB (24 h): 3.3 g/dL
TBIL (24 h): 0.1 mg/dL
TC (24 h): 77.6 mg/dL
TG (24 h): 118.8 mg/dL
TP (24 h): 5.5 g/dL
gamma-GTP (24 h): 1.2 IU/L
